Drawing on ChEMBL document CHEMBL4419169, “Novel Ferroportin Inhibitors” (2018), this text covers inhibition and Activity for six compounds.

Activity calls are given as the source filed them. The calls are words filed in the database; no cut-off is given here.

Experiment [1] addresses T1, Ferroportin (Mus musculus) (UniProt Q9JHI9).
T1 sequence (whole entry): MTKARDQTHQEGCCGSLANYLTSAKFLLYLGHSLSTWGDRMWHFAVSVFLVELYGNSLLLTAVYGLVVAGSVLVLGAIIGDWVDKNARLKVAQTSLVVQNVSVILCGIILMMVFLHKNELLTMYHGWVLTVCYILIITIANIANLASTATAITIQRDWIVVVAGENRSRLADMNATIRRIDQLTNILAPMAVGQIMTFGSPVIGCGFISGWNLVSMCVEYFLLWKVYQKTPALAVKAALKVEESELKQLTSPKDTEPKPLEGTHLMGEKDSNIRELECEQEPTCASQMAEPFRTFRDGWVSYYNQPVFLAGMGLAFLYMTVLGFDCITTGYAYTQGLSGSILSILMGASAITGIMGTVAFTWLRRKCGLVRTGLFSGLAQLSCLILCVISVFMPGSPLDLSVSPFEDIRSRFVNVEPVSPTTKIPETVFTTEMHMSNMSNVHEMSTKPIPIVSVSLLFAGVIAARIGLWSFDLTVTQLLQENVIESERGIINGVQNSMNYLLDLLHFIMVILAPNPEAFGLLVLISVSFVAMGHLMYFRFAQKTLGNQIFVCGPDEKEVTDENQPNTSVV
The experiment is described as follows: Inhibition of ferroportin in mouse J774 cells assessed as induce ferroportin ubiquitination and degradation at 0.04 uM incubated for 120 mins by immunoprecipitation assay. In kind it is cell-based.

Experiment [2] addresses T1, Ferroportin (Mus musculus). The experiment is described as follows: Inhibition of ferroportin in mouse J774 cells assessed as induce ferroportin ubiquitination and degradation at 0.04 uM incubated for 10 mins by immunoprecipitation assay. It counts as cell-based.
Experiment [3] deals with Rattus norvegicus. The experiment is described as follows: Prevention of iron absorption in orally dosed anemic Wistar rat model of iron absorption assessed as inhibition of increase in serum iron pre-dosed 1 hr before ferrous sulfate dosing and measured 3 hours after iron dosing. It counts as functional, organism-based.
Experiment [4] concerns the target T1, Ferroportin (Mus musculus). The experiment is described as follows: Inhibition of ferroportin in mouse J774 cells assessed as induce ferroportin ubiquitination and degradation at 0.2 uM incubated for 10 mins by immunoprecipitation assay. In kind it is cell-based.
For experiment [5], the system named is Mus musculus. The experiment is described as follows: Prevention of hyperferremia in iron overloaded beta2-microglobulin deficient female mouse assessed as reduction in serum iron level at 60 mg/kg, po measured after 3 hrs relative to control. In kind it is functional. Also noted: scale not given: the % may be the effect or the level left.
Experiment [6] addresses T1, Ferroportin (Mus musculus). The experiment is described as follows: Inhibition of ferroportin in mouse J774 cells assessed as induce ferroportin ubiquitination and degradation at 0.2 uM incubated for 120 mins by immunoprecipitation assay. It counts as cell-based.
Experiment [7] concerns Mus musculus. The experiment is described as follows: Prevention of hyperferremia in iron overloaded beta2-microglobulin deficient male mouse assessed as reduction in serum iron level at 60 mg/kg, po measured after 3 hrs relative to control. In kind it is functional. Also noted: scale not given: the % may be the effect or the level left.
Experiment [8] deals with T1, Ferroportin (Mus musculus). The experiment is described as follows: Inhibition of ferroportin in mouse J774 cells assessed as induce ferroportin ubiquitination and degradation at 0.3 uM incubated for 120 mins by immunoprecipitation assay. It counts as cell-based.
In experiment [9] the target is T1, Ferroportin (Mus musculus). The experiment is described as follows: Inhibition of ferroportin in mouse J774 cells assessed as induce ferroportin ubiquitination and degradation at 0.3 uM incubated for 10 mins by immunoprecipitation assay. It counts as cell-based.
Experiment [10] deals with T1, Ferroportin (Mus musculus). The experiment is described as follows: Inhibition of ferroportin in mouse J774 cells assessed as induce ferroportin ubiquitination and degradation at 0.8 uM incubated for 120 mins by immunoprecipitation assay. In kind it is cell-based.
Experiment [11] deals with T1, Ferroportin (Mus musculus). The experiment is described as follows: Inhibition of ferroportin in mouse J774 cells assessed as induce ferroportin ubiquitination and degradation at 0.8 uM incubated for 10 mins by immunoprecipitation assay. In kind it is cell-based.
In experiment [12] the target is T1, Ferroportin (Mus musculus). The experiment is described as follows: Inhibition of ferroportin in mouse J774 cells assessed as induce ferroportin ubiquitination and degradation at 0.5 uM incubated for 120 mins by immunoprecipitation assay. It counts as cell-based.
Experiment [13] has as its target T1, Ferroportin (Mus musculus). The experiment is described as follows: Inhibition of ferroportin in mouse J774 cells assessed as induce ferroportin ubiquitination and degradation at 0.5 uM incubated for 10 mins by immunoprecipitation assay. In kind it is cell-based.

As to `O=C(NCc1ncccc1F)c1csc(CCN(CCc2nc3ccccc3[nH]2)CCc2nc3ccccc3[nH]2)n1`, the inhibition result in experiment [1] and in experiment [2] was “Active” throughout.
For the compound `Cc1cccnc1CNC(=O)c1csc(CCNCc2nc3ccccc3[nH]2)n1`, the Activity entry in experiment [3] was “Dose-dependent effect”.
`O=C(NCc1ncccc1F)c1coc(C2CN(CCc3nc4ccccc4[nH]3)C2)n1`: the inhibition result in experiment [4] and in experiment [6] was “Active” each time. Besides, the Activity in experiment [5] was 49%; in [7] it was 67%.
Consider `O=C(NCc1ncccc1F)c1cnn(CCNCCc2nc3ccccc3[nH]2)c1`, for which the inhibition result in [8] and in experiment [9] was “Active” throughout.
As to `O=C(NCc1ncccc1F)c1coc(CCNCc2nc3ccccc3[nH]2)n1`, the inhibition result in experiment [10] and in experiment [11] was “Active” throughout.
For `O=C(NCc1ncccc1F)c1coc(CCNCCc2nc3c(Cl)cccc3[nH]2)n1`, the inhibition result in experiment [12] and in experiment [13] was “Active” throughout.
